Patent publication US20120183579A1, “COMPOUNDS FOR INFLAMMATION AND IMMUNE-RELATED USES” (Synta Pharmaceuticals Corp., priority 2008, published 2012)
Where a name gives a salt, the structure may show the parent alone.

Test system: IL-2
Assay: Inhibition of IL-2 production (Jurkat cells activated with PHA, ELISA)
Format: cell-based
Details: Homo sapiens, Jurkat, Jurkat/PHA/1% FBS; numeric values
Protocol: Jurkat cells were placed in a 96 well plate (0.5 million cells per well in 1% FBS medium), and then a test compound of this invention was added at different concentrations. After 10 minutes, the cells were activated with PHA (final concentration 2.5 μg/mL) and incubated for 20 hours at 37° C. under 5% CO2. The final volume was 200 μL. Following incubation, the cells were centrifuged, and the supernatants collected and stored at −70° C. prior to assaying for IL-2 production. A commercial ELISA kit (IL-2 Eli-pair, Diaclone Research, Besancon, France) was used to detect production of IL-2, from which dose response curves were obtained. The IC50 value was calculated as the concentration at which 50% of maximum IL-2 production after stimulation was inhibited versus a non-stimulation control.

Structure (SMILES)	IC50
CC1=C(c2ccc(NC(=O)c3cnccc3C)cc2)CN(c2ncccc2F)CC1 [Compound 36, N-(4-(1-(3-fluoropyridin-2-yl)-4-methyl-1,2,5,6-tetrahydropyridin-3-yl)phenyl)-4-methylnicotinamide]	24 nM
CC1=C(c2ccc(NC(=O)c3cccc(F)c3C)nc2)CN(c2nnn(C)n2)CC1 [Compound 37, 3-fluoro-2-methyl-N-(5-(4-methyl-1-(2-methyl-2H-tetrazol-5-yl)-1,2,5,6-tetrahydropyridin-3-yl)pyridin-2-yl) benzamide]	24 nM
CC1=C(c2cnc(NC(=O)c3c(F)cccc3F)cn2)CN(c2ccncc2F)CC1 [Compound 38, 2,6-difluoro-N-(5-(1-(3-fluoropyridin-4-yl)-4-methyl-1,2,5,6-tetrahydropyridin-3-yl)pyrazin-2-yl)benzamide]	26 nM
CC1=C(c2ccc(NC(=O)c3sccc3C)cc2)CN(c2nccs2)CC1 [Compound 39, 3-methyl-N-(4-(4-methyl-1-(thiazol-2-yl)-1,2,5,6-tetrahydropyridin-3-yl)phenyl)thiophene-2-carboxamide]	27 nM
CC1=C(c2cnc(NC(=O)c3cc(F)ccc3F)cn2)CN(c2ncccc2F)CC1 [Compound 40, 2,5-difluoro-N-(5-(1-(3-fluoropyridin-2-yl)-4-methyl-1,2,5,6-tetrahydropyridin-3-yl)pyrazin-2-yl)benzamide]	27 nM
CC1=C(c2ccc(NC(=O)c3ccncc3C)cc2)CN(c2ncccc2F)CC1 [Compound 41, N-(4-(1-(3-fluoropyridin-2-yl)-4-methyl-1,2,5,6-tetrahydropyridin-3-yl)phenyl)-3-methylisonicotinamide]	28 nM
CC1=C(c2cnc(NC(=O)c3cccc(F)c3C)cn2)CN(c2ncccc2F)CC1 [Compound 42, 3-fluoro-N-(5-(1-(3-fluoropyridin-2-yl)-4-methyl-1,2,5,6-tetrahydropyridin-3-yl)pyrazin-2-yl)-2-methylbenzamide]	28 nM
CC1=C(c2ccc(NC(=O)c3c(F)cc(F)cc3F)cc2)CN(c2ncccc2C#N)CC1 [Compound 43, N-(4-(1-(3-cyanopyridin-2-yl)-4-methyl-1,2,5,6-tetrahydropyridin-3-yl)phenyl)-2,4,6-trifluorobenzamide]	31 nM
CC1=C(c2cnc(NC(=O)c3c(F)cc(Br)cc3F)cn2)CN(c2ncccc2F)CC1 [Compound 44, 4-bromo-2,6-difluoro-N-(5-(1-(3-fluoropyridin-2-yl)-4-methyl-1,2,5,6-tetrahydropyridin-3-yl)pyrazin-2-yl) benzamide]	31 nM
CC1=C(c2ccc(NC(=O)c3c(C)cccc3F)cc2)CN(c2nnn(C)n2)CC1 [Compound 45, 2-fluoro-6-methyl-N-(4-(4-methyl-1-(2-methyl-2H-tetrazol-5-yl)-1,2,5,6-tetrahydropyridin-3-yl)phenyl) benzamide]	33 nM
COc1cccc(F)c1C(=O)Nc1cnc(C2=C(C)CCN(c3ncccc3F)C2)cn1 [Compound 46, 2-fluoro-N-(5-(1-(3-fluoropyridin-2-yl)-4-methyl-1,2,5,6-tetrahydropyridin-3-yl)pyrazin-2-yl)-6-methoxybenzamide]	35 nM
CCc1cnc(N2CCC(C)=C(c3cnc(NC(=O)c4c(F)cccc4F)cn3)C2)s1 [Compound 47, N-(5-(1-(5-ethylthiazol-2-yl)-4-methyl-1,2,5,6-tetrahydropyridin-3-yl)pyrazin-2-yl)-2,6-difluorobenzamide hydrochloride]	35 nM
CC1=C(c2cnc(NC(=O)c3c(F)cccc3Cl)cn2)CN(c2ncc(C)s2)CC1 [Compound 48, 2-chloro-6-fluoro-N-(5-(4-methyl-1-(5-methylthiazol-2-yl)-1,2,5,6-tetrahydropyridin-3-yl)pyrazin-2-yl)benzamide]	36 nM
CC1=C(c2cnc(NC(=O)c3cccc(F)c3Cl)cn2)CN(c2ncccc2F)CC1 [Compound 49, 2-chloro-3-fluoro-N-(5-(1-(3-fluoropyridin-2-yl)-4-methyl-1,2,5,6-tetrahydropyridin-3-yl)pyrazin-2-yl)benzamide]	36 nM
